These results are taken from patent US6558900B2, “Regulation of apoptosis and in vitro model for studies thereof” (Emory University, priority 1996, dated 2003).

Entries after “also recorded” stand apart in the source; their conditions may differ. Structures can show the parent of a compound that is named as a salt.

One experiment concerns variety of cell types. To be noted: cited from earlier work.
The next experiment relates to hamster liver nuclei. Description: Reconstitution of DNA fragmentation and nuclear morphological change in HeLa S-100 immunodepleted of cytochrome c. In kind it is biochemical. The settings on record: 1 μg added to immunodepleted HeLa S-100, 1 mM dATP. On the procedure:
(§1) Cytochrome c present in the HeLa cell S-100 was immunodepleted as described in the Example 10. In FIG. 7A, 10 μl aliquots of HeLa S-100 (50 μg) (lanes 1 and 2), or 10 μl aliquots of HeLa S-100 immunodepleted of cytochrome c (lanes 3 and 4), or 10 μl of HeLa S-100 immunodepleted of cytochrome c supplemented with 0.2 μg Apaf-2 purified through the Mono S column (H) (lanes 5 and 6), bovine heart cytochrome c (B) (lanes 7 and 8), or rat liver cytochrome c (R) (lanes 9 and 10), were incubated with aliquots of 3 μl in vitro translated, ^35S-labeled CPP32 in the absence (lanes 1, 3, 5, 7, 9) or presence (lanes 2, 4, 6, 8, 10) of 1 mM dATP at 30° C. for 1 hr in a final reaction volume of 20 μl of buffer A. Samples were subjected to SDS-PAGE and transferred to a nitrocellulose filter which were then exposed to film for 16 hr at room temperature. In FIG. 7B, HeLa S-100 (50 μg) immunodepleted of cytochrome c were reconstituted with the indicated amount of Apaf-2 (purified through Mono S column step) in a CPP32 cleavage reaction as described in FIG. 7A. The cleaved products (p20) were quantified in a Fuji-1000 phosphorimager machine and plotted in comparison with that generated by HeLa S-100. In FIG. 7C, aliquots of 50 μl of HeLa S-100 (250 μg) (lanes 1 and 2), or 50 μl of HeLa S-100 immunodepleted of cytochrome c (lanes 3 and 4), or 50 μl of HeLa S-100 immunodepleted of cytochrome c supplemented with 1 μg apaf-2 purified through the Mono S column (H) (lanes 5 and 6), bovine heart cytochrome c (B) (lanes 7 and 8), or rat liver cytochrome c (R) (lanes 9 and 10), were incubated with aliquots of 6 μl hamster liver nuclei in the absence (lanes 1, 3, 5, 7, 9) or presence (lanes 2, 4, 6, 8, 10) of 1 mM dATP at 37° C. for 2 hr in a final reaction volume of 60 μl. The DNA were isolated as described in the Examples, analyzed on 2% agarose gel electrophoresis, and the DNA was visualized by ethidium bromide staining. In FIG. 7D, DNA fragmentation assays were carried out as in FIG. 7C using HeLa S-100 immunodepleted of cytochrome c alone (a,b) or supplemented with Apaf-2 purified through Mono S column step (c,d) in the absence (a,c) or presence of 1 mM dATP (b,d). After 2 hr incubation at 37° C., an aliquot of each reaction (30 μl) was stained with 4′,6′-diamidino-2-phenylindole (DAPI), and observed under a fluorescence microscope with a UV-2A combination filter.
To rule out the possibility that the Apaf-2 activity is due to a minor contaminating protein that co-purified with cytochrome c, an immunodepletion experiment was carried out using a monoclonal antibody against rat cytochrome c. This monoclonal antibody cross-reacts with purified Apaf-2. […]

Experiment [1] has as its system CPP32. Description: Reconstitution of dATP-dependent CPP32 activation in HeLa S-100 immunodepleted of cytochrome c. It is filed as biochemical, human. To be noted: 0.2 μg added to immunodepleted HeLa S-100, 1 mM dATP. On the procedure:
as §1
To rule out the possibility that the Apaf-2 activity is due to a minor contaminating protein that co-purified with cytochrome c, an immunodepletion experiment was carried out using a monoclonal antibody against rat cytochrome c. This monoclonal antibody cross-reacts with purified Apaf-2. As shown in FIGS. 7A-7D, HeLa cell S-100 depleted of cytochrome c using the monoclonal anti-cytochrome c antibody lost the dATP-dependent activation of CPP32 and the ability to induce DNA fragmentation in the added nuclei (FIGS. 7A and 7C, lanes 3 and 4). Adding back either the purified Apaf-2 from HeLa cells or the commercial cytochrome c from bovine heart or rat liver to the immunodepleted extracts restored the dATP-dependent activation of CPP32 and DNA fragmentation (FIGS. 7A and 7C, lanes 5-10). The reconstitution of cytochrome c dependent-activation of CPP32 was evident with the addition of 0.01 μg (33 nM) of purified cytochrome c to the cytochrome c-depleted extracts (FIG. 7B).
CPP32 was translated and purified as described above. Aliquot of 3 μl of the in vitro translated CPP32 was incubated with the indicated protein fraction, nucleotides, and 1 mM additional MgCl2 at 30° C. for 1 hour in a final volume of 20 μl of buffer A. At the end of the incubation, 7 μl of 4×SDS sample buffer was added to each reaction. After boiling for 3 min, each sample was subjected to a 15% SDS-polyacrylamide gel electrophoresis (SDS-PAGE). The gel was transferred to a nitrocellulose filter which was subsequently exposed to a Kodak X-OMAT AR X-ray film (Eastman Kodak, Rochester, N.Y.) for 16 hr at room temperature. […]

Experiment [2] relates to CPP32. Description: Apaf-2 activity: recombining with phosphocellulose flow through fraction (Apaf-1) and 35S-labeled CPP32. In kind it is biochemical, human. The settings on record: 0.2 μg protein with phosphocellulose flowthrough fraction, 1 mM dATP. On the procedure:
FIG. 3 illustrates fractionation and reconstitution of dATP-dependent activation of CPP32 by phosphocellulose chromatography. HeLa cell S-100 was subjected to phosphocellulose chromatography and the column flow through and bound material were collected as described in the Examples. Aliquots (10 μl) of HeLa S-100 (50 μg) (lanes 1 and 2), phosphocellulose flow through fraction (PC-FT) (lanes 3 and 4), phosphocellulose bound fraction (PC-B) (lanes 5 and 6), and the mixture of phosphocellulose flow through and bound material (lanes 7 and 8) were incubated with aliquots of 3 μl in vitro translated, ^35S-labeled CPP32 at 30° C. for 1 hr in the absence (lanes 1,3,5,7) or presence (lanes 2,4,6,8) of 1 mM dATP. The samples were subjected to SDS-PAGE, transferred to a nitrocellulose filter, and the filter was exposed to film for 16 hours at room temperature.
The Apaf-2 activity that bound to the phosphocellulose column was purified through the Mono S column as described in Example 7. […] In FIG. 4B, aliquots (30 μl) of the Mono-S fractions were subjected to 15% SDS-PAGE and the proteins were visualized by silver staining.
Aliquots of 0.2 μg of Apaf-2 purified through the Mono S column (lanes 1, 2), cytochrome c from bovine heart (lanes 3, 4), and rat liver (lanes 5, 6) were incubated with aliquots of 10 μl phosphocellulose flowthrough fraction and 3 μl in vitro translated, 35S-labeled CPP32 at 30° C. for 1 hr in a final volume of 20 μl buffer A in the absence (lanes 1,3,5) or presence of (lanes 2, 4, 6) 1 mM dATP. Samples were subjected to SDS-PAGE and transferred to a nitrocellulose filter which was then exposed to a film for 16 hr at room temperature.
To isolate the protein(s) required for the activation of CPP32, HeLa S-100 was loaded onto a phosphocellulose column, and the flow-through and bound fractions were collected. […] When the flowthrough and bound fractions were mixed, CPP32-activating activity was restored (lanes 7-8). […] The factor(s) that flow through the phosphocellulose column are designated apoptotic protease activating factor-1 (Apaf-1) and the factor that bound to the column is designated apoptotic protease activating factor-2 (Apaf-2). It is understood that “Apaf-1” may represent more than one protein or it may represent a combination of protein(s) and other factors.
Apaf-2 activity was assayed by recombining with Apaf-1 after purification by the following steps. First, the Apaf-2 fraction was subjected to 50% ammonium sulfate precipitation. All of the activity remained in the supernatant while most of the protein precipitated (Table I). The supernatant was loaded onto a phenyl-sepharose (hydrophobic interaction) column and the activity was eluted with 1 M ammonium sulfate. The eluate was passed through a gel filtration column; active fractions were subjected to sequential Mono Q (anion exchange) and Mono S (cation exchange) chromatography. The Apaf-2 activity flowed through the Mono Q column, and the flow through was directly loaded onto the Mono S column. Bound Apaf-2 activity was then eluted with a 100-300 mM NaCl linear salt gradient. The fractions from the Mono S column were collected and assayed. […] The active fractions were analyzed by SDS-PAGE (FIG. 4B). A protein of apparent molecular mass of 15 kDa was co-eluted with the activity. No other proteins were detected by silver staining in the active Apaf-2 fractions.
CPP32 was translated and purified as described above. […]

For the compound `COc1cc([C@@H]2c3cc4c(cc3[C@@H](O[C@@H]3O[C@@H]5CO[C@@H](C)O[C@H]5[C@H](O)[C@H]3O)[C@H]3COC(=O)[C@H]23)OCO4)cc(OC)c1O` [etoposide], in the experiment with variety of cell types, the initiation of apoptosis entry is given as “act to initiate apoptosis”.

For `O=C1c2c(O)ccc(O)c2C(=O)c2c(NCCNCCO)ccc(NCCNCCO)c21` [mitoxantrone HCl], the initiation of apoptosis entry with variety of cell types is “act to initiate apoptosis”.

As for “bovine heart cytochrome c: commercial cytochrome c from bovine heart (Sigma)”, the “restoration of DNA fragmentation” value with hamster liver nuclei is “restored”. Besides, the “restoration of dATP-dependent activation of CPP32” value in the experiment on CPP32 [1] was “restored”. In the experiment on CPP32 [2], the “Apaf-2 activity (dATP-dependent activation of CPP32)” value is given as “have Apaf-2 activity; also recorded: initiated dATP-dependent activation of CPP32 as efficiently as Apaf-2”.

As for “rat liver cytochrome c: commercial cytochrome c from rat liver (Sigma)”, the “restoration of DNA fragmentation” value with hamster liver nuclei is reported as “restored”. Moreover, in the experiment with CPP32 [1], the “restoration of dATP-dependent activation of CPP32” value was “restored”. Further, in the experiment on CPP32 [2], the “Apaf-2 activity (dATP-dependent activation of CPP32)” value is reported as “have Apaf-2 activity; also recorded: initiated dATP-dependent activation of CPP32 as efficiently as Apaf-2”.
